Experimental data: paper PMC10507085, “Pharmacological inhibition of TBK1/IKKε blunts immunopathology in a murine model of SARS-CoV-2 infection” (Nature Communications, 2023)

What was measured:
Test in all cases: biochemical
Set-up in all cases: KINOMEscan competition binding, DNA-tagged kinase against immobilised ligand, qPCR read-out
Settings in all cases: read-out: Percent Control
STK3 = STK3 (Homo sapiens, UniProt Q13188)
Experimental: (§1) The KINOMEscan^TM kinase assays[65] were performed by Eurofins DiscoverX Corporation. For each kinase, the assay relies on the ability of the tested compound to compete against an immobilised ligand for binding to the DNA-tagged kinase. RT-qPCR is then used to measure the quantity of kinase molecules bound to the immobilised ligand, which is decreased if the tested compound competed with the kinase-ligand interaction. An 11-point 3-fold serial dilution of IDX compound was prepared in 100% DMSO at 100× final test concentration and subsequently diluted to 1× in the assay. […]

IKBKE = IKBKE (Homo sapiens, UniProt Q14164)
Experimental: as §1

MAP3K5 = MAP3K5 (Homo sapiens, UniProt Q99683)
Experimental: as §1

FLT1 = FLT1 (Homo sapiens, UniProt P17948)
Chain of FLT1 (P17948 whole entry): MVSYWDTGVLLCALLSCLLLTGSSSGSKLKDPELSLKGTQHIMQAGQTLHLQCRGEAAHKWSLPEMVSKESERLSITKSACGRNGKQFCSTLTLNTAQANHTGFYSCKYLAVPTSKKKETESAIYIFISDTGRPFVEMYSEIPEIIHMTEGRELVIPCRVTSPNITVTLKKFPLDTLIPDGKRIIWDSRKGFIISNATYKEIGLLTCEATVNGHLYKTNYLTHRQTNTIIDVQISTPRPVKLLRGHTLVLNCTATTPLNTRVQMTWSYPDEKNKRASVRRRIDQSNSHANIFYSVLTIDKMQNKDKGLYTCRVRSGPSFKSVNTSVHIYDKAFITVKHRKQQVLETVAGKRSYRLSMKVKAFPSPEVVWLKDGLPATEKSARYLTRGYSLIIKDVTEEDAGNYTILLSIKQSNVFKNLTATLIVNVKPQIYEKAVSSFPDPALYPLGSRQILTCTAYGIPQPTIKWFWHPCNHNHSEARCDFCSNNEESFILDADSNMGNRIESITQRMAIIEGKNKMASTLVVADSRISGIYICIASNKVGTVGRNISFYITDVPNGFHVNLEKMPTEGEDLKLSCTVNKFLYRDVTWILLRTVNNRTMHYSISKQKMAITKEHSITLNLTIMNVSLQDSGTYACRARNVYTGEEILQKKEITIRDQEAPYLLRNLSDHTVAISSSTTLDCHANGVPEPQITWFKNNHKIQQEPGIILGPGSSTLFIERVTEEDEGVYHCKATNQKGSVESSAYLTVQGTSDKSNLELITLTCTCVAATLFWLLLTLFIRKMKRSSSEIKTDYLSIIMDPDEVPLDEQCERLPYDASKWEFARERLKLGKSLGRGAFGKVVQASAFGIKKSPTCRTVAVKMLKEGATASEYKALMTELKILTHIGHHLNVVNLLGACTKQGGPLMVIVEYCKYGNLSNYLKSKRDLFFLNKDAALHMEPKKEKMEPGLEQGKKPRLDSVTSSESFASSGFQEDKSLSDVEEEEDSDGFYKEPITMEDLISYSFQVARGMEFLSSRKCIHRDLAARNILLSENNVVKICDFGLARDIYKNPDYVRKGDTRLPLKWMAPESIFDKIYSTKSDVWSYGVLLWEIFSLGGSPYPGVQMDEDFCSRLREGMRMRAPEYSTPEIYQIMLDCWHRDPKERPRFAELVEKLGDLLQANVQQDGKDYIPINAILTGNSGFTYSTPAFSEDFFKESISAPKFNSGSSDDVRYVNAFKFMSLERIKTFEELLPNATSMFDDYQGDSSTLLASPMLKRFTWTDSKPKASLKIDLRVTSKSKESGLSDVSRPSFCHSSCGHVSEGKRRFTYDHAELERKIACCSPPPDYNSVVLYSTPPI
Experimental: as §1

MAPK14 = MAPK14 (Homo sapiens, UniProt Q16539)
Chain of MAPK14 (Q16539 whole entry): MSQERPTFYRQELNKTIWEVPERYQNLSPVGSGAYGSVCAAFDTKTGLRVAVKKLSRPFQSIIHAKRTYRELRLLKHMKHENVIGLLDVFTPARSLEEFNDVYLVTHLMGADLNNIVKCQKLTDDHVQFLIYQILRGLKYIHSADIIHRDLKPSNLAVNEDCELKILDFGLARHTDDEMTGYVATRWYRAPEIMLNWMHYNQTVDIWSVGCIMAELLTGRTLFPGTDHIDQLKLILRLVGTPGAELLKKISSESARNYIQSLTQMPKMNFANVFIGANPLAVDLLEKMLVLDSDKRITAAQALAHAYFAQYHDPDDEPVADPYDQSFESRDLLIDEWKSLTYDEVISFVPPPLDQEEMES
Experimental: as §1

PI4KB = PI4KB (Homo sapiens, UniProt Q9UBF8)
Experimental: as §1

CAMK4 = CAMK4 (Homo sapiens, UniProt Q16566)
Experimental: as §1

TYRO3 = TYRO3 (Homo sapiens, UniProt Q06418)
Chain of TYRO3 (Q06418 whole entry): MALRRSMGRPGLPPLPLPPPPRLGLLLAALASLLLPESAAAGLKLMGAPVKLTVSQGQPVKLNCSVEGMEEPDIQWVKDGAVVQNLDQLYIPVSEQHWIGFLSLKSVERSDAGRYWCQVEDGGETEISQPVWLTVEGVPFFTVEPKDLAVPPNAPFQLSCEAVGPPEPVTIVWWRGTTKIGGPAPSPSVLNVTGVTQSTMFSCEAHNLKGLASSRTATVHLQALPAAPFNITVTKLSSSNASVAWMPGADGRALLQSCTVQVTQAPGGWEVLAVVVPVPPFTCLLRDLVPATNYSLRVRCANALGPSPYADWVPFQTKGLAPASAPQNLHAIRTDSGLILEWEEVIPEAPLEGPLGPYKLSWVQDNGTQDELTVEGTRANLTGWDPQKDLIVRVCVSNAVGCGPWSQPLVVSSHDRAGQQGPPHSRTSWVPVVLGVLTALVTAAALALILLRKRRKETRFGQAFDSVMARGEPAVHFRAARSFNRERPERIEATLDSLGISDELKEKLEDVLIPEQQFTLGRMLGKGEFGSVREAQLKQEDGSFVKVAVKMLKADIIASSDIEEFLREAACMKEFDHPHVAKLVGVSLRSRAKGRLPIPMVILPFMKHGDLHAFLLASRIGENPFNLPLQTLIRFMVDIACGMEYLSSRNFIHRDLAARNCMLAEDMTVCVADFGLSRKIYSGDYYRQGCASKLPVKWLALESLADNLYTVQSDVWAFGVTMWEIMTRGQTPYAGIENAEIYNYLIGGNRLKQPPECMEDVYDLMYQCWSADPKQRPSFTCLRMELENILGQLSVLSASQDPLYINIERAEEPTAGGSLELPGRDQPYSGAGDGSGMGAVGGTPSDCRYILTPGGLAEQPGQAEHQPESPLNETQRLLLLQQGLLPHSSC
Experimental: as §1

HUNK = HUNK (Homo sapiens, UniProt P57058)
Experimental: as §1

PRKAA2 = PRKAA2 (Homo sapiens, UniProt P54646)
Experimental: as §1

CDK4-cyclinD3 = CDK4-cyclinD3 (Homo sapiens, UniProt P11802)
Experimental: as §1

MAP3K9 = MAP3K9 (Homo sapiens, UniProt P80192)
Experimental: as §1

CDK5 = CDK5 (Homo sapiens, UniProt Q00535)
Chain of CDK5 (Q00535 whole entry): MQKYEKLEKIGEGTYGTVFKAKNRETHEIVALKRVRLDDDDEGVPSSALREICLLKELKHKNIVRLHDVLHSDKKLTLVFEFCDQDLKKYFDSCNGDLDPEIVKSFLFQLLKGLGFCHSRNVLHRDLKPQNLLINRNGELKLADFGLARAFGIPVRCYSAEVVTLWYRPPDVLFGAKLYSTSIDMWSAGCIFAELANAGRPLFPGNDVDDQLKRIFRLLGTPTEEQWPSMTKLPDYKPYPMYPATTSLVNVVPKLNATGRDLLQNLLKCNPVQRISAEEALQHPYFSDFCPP
Experimental: as §1

YES1 = YES1 (Homo sapiens, UniProt P07947)
Chain of YES1 (P07947 whole entry): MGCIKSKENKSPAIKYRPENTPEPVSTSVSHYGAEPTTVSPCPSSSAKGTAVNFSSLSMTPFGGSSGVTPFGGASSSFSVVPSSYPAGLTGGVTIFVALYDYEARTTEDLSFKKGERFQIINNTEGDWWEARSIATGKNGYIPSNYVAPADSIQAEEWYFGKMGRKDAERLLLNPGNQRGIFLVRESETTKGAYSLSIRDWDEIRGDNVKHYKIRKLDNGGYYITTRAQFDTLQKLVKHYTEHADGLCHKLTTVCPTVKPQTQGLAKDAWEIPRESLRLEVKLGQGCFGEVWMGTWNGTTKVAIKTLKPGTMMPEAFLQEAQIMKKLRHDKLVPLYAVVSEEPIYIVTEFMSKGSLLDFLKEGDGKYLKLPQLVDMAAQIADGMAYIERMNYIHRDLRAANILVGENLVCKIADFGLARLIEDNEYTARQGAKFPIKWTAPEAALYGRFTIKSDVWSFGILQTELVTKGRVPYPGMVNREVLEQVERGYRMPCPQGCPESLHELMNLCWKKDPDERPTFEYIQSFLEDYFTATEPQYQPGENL
Experimental: as §1

MYO3A = MYO3A (Homo sapiens, UniProt Q8NEV4)
Experimental: as §1

ERBB2 = ERBB2 (Homo sapiens, UniProt P04626)
Chain of ERBB2 (P04626 whole entry): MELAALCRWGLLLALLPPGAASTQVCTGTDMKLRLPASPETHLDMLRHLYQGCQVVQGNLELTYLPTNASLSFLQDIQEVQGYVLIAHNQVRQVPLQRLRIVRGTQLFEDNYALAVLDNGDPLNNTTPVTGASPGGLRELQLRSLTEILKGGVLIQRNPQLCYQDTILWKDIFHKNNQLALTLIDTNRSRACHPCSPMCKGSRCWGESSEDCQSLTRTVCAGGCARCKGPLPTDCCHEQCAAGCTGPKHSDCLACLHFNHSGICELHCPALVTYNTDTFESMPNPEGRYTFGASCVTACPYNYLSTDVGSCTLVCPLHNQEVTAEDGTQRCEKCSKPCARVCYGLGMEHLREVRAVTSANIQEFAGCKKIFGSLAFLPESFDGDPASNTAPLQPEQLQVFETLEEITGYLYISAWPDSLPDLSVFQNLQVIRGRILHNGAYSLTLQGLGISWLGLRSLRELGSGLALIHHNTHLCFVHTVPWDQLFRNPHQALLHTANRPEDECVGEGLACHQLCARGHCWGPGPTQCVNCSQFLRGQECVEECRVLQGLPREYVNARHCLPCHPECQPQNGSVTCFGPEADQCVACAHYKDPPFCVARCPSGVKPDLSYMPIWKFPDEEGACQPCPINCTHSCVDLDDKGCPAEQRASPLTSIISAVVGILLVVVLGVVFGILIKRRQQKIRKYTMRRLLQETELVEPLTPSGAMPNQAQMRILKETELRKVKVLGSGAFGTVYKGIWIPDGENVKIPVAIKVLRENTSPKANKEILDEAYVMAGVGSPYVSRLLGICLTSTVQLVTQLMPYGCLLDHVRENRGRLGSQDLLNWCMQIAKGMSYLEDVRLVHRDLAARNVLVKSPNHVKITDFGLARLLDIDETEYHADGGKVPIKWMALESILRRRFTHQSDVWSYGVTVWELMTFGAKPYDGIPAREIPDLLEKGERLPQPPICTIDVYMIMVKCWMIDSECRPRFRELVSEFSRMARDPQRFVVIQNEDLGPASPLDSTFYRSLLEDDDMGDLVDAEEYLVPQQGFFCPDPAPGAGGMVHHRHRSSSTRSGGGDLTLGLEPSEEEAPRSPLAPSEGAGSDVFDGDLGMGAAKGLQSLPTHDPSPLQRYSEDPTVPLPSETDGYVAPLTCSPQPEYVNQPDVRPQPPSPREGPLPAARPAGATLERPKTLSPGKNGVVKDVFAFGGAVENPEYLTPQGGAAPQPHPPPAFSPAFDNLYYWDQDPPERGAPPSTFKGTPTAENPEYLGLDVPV
Experimental: as §1

PRKCI = PRKCI (Homo sapiens, UniProt P41743)
Experimental: as §1

MAPK13 = MAPK13 (Homo sapiens, UniProt O15264)
Chain of MAPK13 (O15264 whole entry): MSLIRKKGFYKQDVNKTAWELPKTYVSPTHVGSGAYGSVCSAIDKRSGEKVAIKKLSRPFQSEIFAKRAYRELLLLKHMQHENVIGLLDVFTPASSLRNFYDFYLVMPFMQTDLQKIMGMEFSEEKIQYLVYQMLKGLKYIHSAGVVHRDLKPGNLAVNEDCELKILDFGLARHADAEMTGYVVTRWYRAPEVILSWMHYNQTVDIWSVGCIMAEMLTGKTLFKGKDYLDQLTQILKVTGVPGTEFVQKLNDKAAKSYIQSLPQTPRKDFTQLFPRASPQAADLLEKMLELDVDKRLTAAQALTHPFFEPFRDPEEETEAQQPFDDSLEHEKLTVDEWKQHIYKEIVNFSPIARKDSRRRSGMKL
Experimental: as §1

HIPK2 = HIPK2 (Homo sapiens, UniProt Q9H2X6)
Experimental: as §1

PLK1 = PLK1 (Homo sapiens, UniProt P53350)
Experimental: as §1

Compound: Oc1ccc(C2=Cc3ccc(O)cc3OC2)cc1 [compound 1, idronoxil]
- remaining binding at 10 µM (STK3): 93%
- remaining binding at 10 µM (IKBKE): 65%
- remaining binding at 10 µM (MAP3K5): 92%
- remaining binding at 10 µM (FLT1): 100%
- remaining binding at 10 µM (MAPK14): 90%
- remaining binding at 10 µM (PI4KB): 63%
- remaining binding at 10 µM (CAMK4): 100%
- remaining binding at 10 µM (TYRO3): 66%
- remaining binding at 10 µM (HUNK): 69%
- remaining binding at 10 µM (PRKAA2): 84%
- remaining binding at 10 µM (CDK4-cyclinD3): 85%
- remaining binding at 10 µM (MAP3K9): 82%
- remaining binding at 10 µM (CDK5): 100%
- remaining binding at 10 µM (YES1): 68%
- remaining binding at 10 µM (MYO3A): 91%
- remaining binding at 10 µM (ERBB2): 88%
- remaining binding at 10 µM (PRKCI): 70%
- remaining binding at 10 µM (MAPK13): 100%
- remaining binding at 10 µM (HIPK2): 47%
- remaining binding at 10 µM (PLK1): 77%
